# Like-named read-outs stand apart in the source and are kept apart here. Marks after values point to notes of the source that are not given here.
# What was measured:
# [1] = system: biomarker (antibody) in serum samples from patients with symptoms of tuberculosis; assay type: binding, human
# wild-type BMDCs = test: IL-6 secretion by bone marrow-derived dendritic cells, cytokine-specific ELISA; assay type: cell-based, mice; conditions: antigens at 100 μg/ml coated on plate, ISO as solvent, FIG. 1
# Protocol: The concentrations of cytokines in the cell-free medium from stimulation of bone marrow-derived dendritic cells were determined using standard cytokine-specific ELISA. BMDCs were generated from mice, by flushing out the femurs of mice into complete medium and pipetting vigorously to make a single-cell suspension. The glycolipids were coated to the bottom of 96 micro-well plates (100 μg/ml). BMDCs were added, and after 6 or 48 hours of incubation the supernatants were harvested.
# The first experiment was the IL-6 secretion by wild-type BMDCs from mice using compounds B, D, C and H (shown below) as antigens at 100 μg/ml, and isopropyl alcohol (ISO) as a solvent. Commercial trehalose-6,6-dimycolate (TDM), lipopolysaccharides (LPS), and trehalose-6,6-dibehenate (TDB) were used as a controls.
smiles,measurement,setting,value
CCCCCCCCCCCCCCCCCCCCCCCC[C@@H](C(=O)OC[C@H]1O[C@H](OC)[C@@H](O)[C@@H]1O)[C@H](O)CCCCCCCCCCCCCCCCC[C@@H]1C[C@@H]1CCCCCCCCCCCCCCCC[C@@H](OC)[C@@H](C)CCCCCCCCCCCCCCCCCC [Antigen B],ELISA absorbance at 492 nm,[1]; serum sample 1 TB+,0.48*
same,ELISA absorbance at 492 nm,[1]; serum sample 2 TB+,0.54*
same,ELISA absorbance at 492 nm,[1]; serum sample 3 TB+,1.10*
same,ELISA absorbance at 492 nm,[1]; serum sample 4 TB+,1.00*
same,ELISA absorbance at 492 nm,[1]; serum sample 5 TB+,0.45*
same,ELISA absorbance at 492 nm,[1]; serum sample 6 TB+,0.97*
same,ELISA absorbance at 492 nm,[1]; serum sample 7 TB+,0.87*
same,ELISA absorbance at 492 nm,[1]; serum sample 8 TB+,0.97*
same,ELISA absorbance at 492 nm,[1]; serum sample 9 TB+,0.62*
same,ELISA absorbance at 492 nm,[1]; serum sample 10 TB−,0.56*
same,ELISA absorbance at 492 nm,[1]; serum sample 11 TB−,0.64*
same,ELISA absorbance at 492 nm,[1]; serum sample 12 TB−,0.44
same,ELISA absorbance at 492 nm,[1]; serum sample 13 TB−,0.56*
same,ELISA absorbance at 492 nm,[1]; serum sample 14 TB−,0.91*
same,ELISA absorbance at 492 nm,[1]; serum sample 15 TB−,0.53*
same,ELISA absorbance at 492 nm,[1]; serum sample 16 TB−,0.52*
same,ELISA absorbance at 492 nm,[1]; serum sample 17 TB−,0.87*
same,ELISA absorbance at 492 nm,[1]; serum sample 18 TB−,0.44
same,ELISA absorbance at 492 nm,[1]; serum sample 19 TB−,0.53*
same,ELISA absorbance at 492 nm,[1]; serum sample 20 TB−,0.63*
same,ELISA absorbance at 492 nm,[1]; serum sample 21 TB−,0.42
same,ELISA absorbance at 492 nm,[1]; serum sample 22 TB−,0.33
same,ELISA absorbance at 492 nm,[1]; serum sample 23 TB−,0.48*
same,ELISA absorbance at 492 nm,[1]; serum sample 24 TB−,0.81*
same,ELISA absorbance at 492 nm,[1]; serum sample 25 TB−,0.23
same,ELISA absorbance at 492 nm,[1]; serum sample 26 TB−,0.64*
same,ELISA absorbance at 492 nm,[1]; serum sample 27 TB−,0.60*
same,ELISA absorbance at 492 nm,[1]; serum sample 28 TB−,0.42
same,ELISA absorbance at 492 nm,[1]; serum sample 29 TB−,0.39
same,ELISA absorbance at 492 nm,[1]; serum sample 30 TB−,0.41
same,ELISA absorbance at 492 nm,[1]; serum sample 31 TB−,0.37
same,ELISA absorbance at 492 nm,[1]; serum sample 32 TB−,0.68*
same,ELISA absorbance at 492 nm,[1]; serum sample 33 TB−,0.36
same,ELISA absorbance at 492 nm,[1]; serum sample 34 TB−,0.47*
same,ELISA absorbance at 492 nm,[1]; serum sample 35 TB−,0.38
same,ELISA absorbance at 492 nm,[1]; serum sample 36 TB−,0.28
same,ELISA absorbance at 492 nm,[1]; serum sample 37 TB−,0.40
same,ELISA absorbance at 492 nm,[1]; serum sample 38 TB−,0.44
same,ELISA absorbance at 492 nm,[1]; serum sample 39 TB−,0.31
same,ELISA absorbance at 492 nm,[1]; serum sample 40 TB−,0.28
same,ELISA absorbance at 492 nm,[1]; serum sample 41 TB−,0.51*
same,ELISA absorbance at 492 nm,[1]; serum sample 42 TB−,0.49*
same,ELISA absorbance at 492 nm,[1]; serum sample 43 TB−,0.28
same,ELISA absorbance at 492 nm,[1]; serum sample 44 TB−,0.60*
same,ELISA absorbance at 492 nm,[1]; serum sample 45 TB−,0.34
same,ELISA absorbance at 492 nm,[1]; serum sample 46 TB−,0.27
same,ELISA absorbance at 492 nm,[1]; serum sample 47 TB−,0.35
same,ELISA absorbance at 492 nm,[1]; serum sample 48 TB−,0.29
same,ELISA absorbance at 492 nm,[1]; serum sample 49 TB−,0.47*
same,ELISA absorbance at 492 nm,[1]; serum sample 50 TB−,0.31
same,ELISA absorbance at 492 nm,[1]; serum sample 51 TB−,0.22
same,ELISA absorbance at 492 nm,[1]; serum sample 52 TB−,0.28
same,ELISA absorbance at 492 nm,[1]; serum sample 53 TB−,0.24
same,ELISA absorbance at 492 nm,[1]; serum sample 54 TB−,0.25
same,ELISA absorbance at 492 nm,[1]; serum sample 55 TB−,0.27
same,ELISA absorbance at 492 nm,[1]; serum sample 56 TB−,0.42
same,ELISA absorbance at 492 nm,[1]; serum sample 57 TB−,0.40
same,ELISA absorbance at 492 nm,[1]; serum sample 58 TB−,0.32
same,ELISA absorbance at 492 nm,[1]; serum sample 59 TB−,0.30
same,ELISA absorbance at 492 nm,[1]; serum sample 60 TB−,0.36
same,ELISA absorbance at 492 nm,[1]; serum sample 61 TB−,0.36
same,ELISA absorbance at 492 nm,[1]; serum sample 62 TB−,0.26
same,ELISA absorbance at 492 nm,[1]; serum sample 63 TB−,0.21
same,ELISA absorbance at 492 nm,[1]; serum sample 64 TB−,2.33*
same,IL-6 secretion by wild-type BMDCs,wild-type BMDCs,good level of stimulation
CCCCCCCCCCCCCCCCCCCCCC[C@@H](C(=O)OC[C@H]1O[C@H](OC)[C@@H](O)[C@@H]1O)[C@H](O)CCCCCCCCCCCCCCC[C@@H]1C[C@@H]1CCCCCCCCCCCCCCCCCCC(=O)C(C)CCCCCCCCCCCCCCCCCC (stereo partly shown) [Antigen C],ELISA absorbance at 492 nm,[1]; serum sample 1 TB+,0.33*
same,ELISA absorbance at 492 nm,[1]; serum sample 2 TB+,0.26*
same,ELISA absorbance at 492 nm,[1]; serum sample 3 TB+,0.44*
same,ELISA absorbance at 492 nm,[1]; serum sample 4 TB+,0.48*
same,ELISA absorbance at 492 nm,[1]; serum sample 5 TB+,0.40*
same,ELISA absorbance at 492 nm,[1]; serum sample 6 TB+,0.39*
same,ELISA absorbance at 492 nm,[1]; serum sample 7 TB+,1.37*
same,ELISA absorbance at 492 nm,[1]; serum sample 8 TB+,0.46*
same,ELISA absorbance at 492 nm,[1]; serum sample 9 TB+,0.35*
same,ELISA absorbance at 492 nm,[1]; serum sample 10 TB−,0.22
same,ELISA absorbance at 492 nm,[1]; serum sample 11 TB−,0.20
same,ELISA absorbance at 492 nm,[1]; serum sample 12 TB−,0.18
same,ELISA absorbance at 492 nm,[1]; serum sample 13 TB−,0.24
same,ELISA absorbance at 492 nm,[1]; serum sample 14 TB−,0.56*
same,ELISA absorbance at 492 nm,[1]; serum sample 15 TB−,0.22
same,ELISA absorbance at 492 nm,[1]; serum sample 16 TB−,0.30*
same,ELISA absorbance at 492 nm,[1]; serum sample 17 TB−,0.57*
same,ELISA absorbance at 492 nm,[1]; serum sample 18 TB−,0.32*
same,ELISA absorbance at 492 nm,[1]; serum sample 19 TB−,0.20
same,ELISA absorbance at 492 nm,[1]; serum sample 20 TB−,0.41*
same,ELISA absorbance at 492 nm,[1]; serum sample 21 TB−,0.41*
same,ELISA absorbance at 492 nm,[1]; serum sample 22 TB−,0.31*
same,ELISA absorbance at 492 nm,[1]; serum sample 23 TB−,0.27*
same,ELISA absorbance at 492 nm,[1]; serum sample 24 TB−,0.53*
same,ELISA absorbance at 492 nm,[1]; serum sample 25 TB−,0.24
same,ELISA absorbance at 492 nm,[1]; serum sample 26 TB−,0.90*
same,ELISA absorbance at 492 nm,[1]; serum sample 27 TB−,0.46*
same,ELISA absorbance at 492 nm,[1]; serum sample 28 TB−,0.42*
same,ELISA absorbance at 492 nm,[1]; serum sample 29 TB−,0.38*
same,ELISA absorbance at 492 nm,[1]; serum sample 30 TB−,0.39*
same,ELISA absorbance at 492 nm,[1]; serum sample 31 TB−,0.51*
same,ELISA absorbance at 492 nm,[1]; serum sample 32 TB−,1.01*
same,ELISA absorbance at 492 nm,[1]; serum sample 33 TB−,0.33*
same,ELISA absorbance at 492 nm,[1]; serum sample 34 TB−,0.52*
same,ELISA absorbance at 492 nm,[1]; serum sample 35 TB−,0.55*
same,ELISA absorbance at 492 nm,[1]; serum sample 36 TB−,0.25
same,ELISA absorbance at 492 nm,[1]; serum sample 37 TB−,0.43*
same,ELISA absorbance at 492 nm,[1]; serum sample 38 TB−,0.43*
same,ELISA absorbance at 492 nm,[1]; serum sample 39 TB−,0.34*
same,ELISA absorbance at 492 nm,[1]; serum sample 40 TB−,0.26*
same,ELISA absorbance at 492 nm,[1]; serum sample 41 TB−,0.44*
same,ELISA absorbance at 492 nm,[1]; serum sample 42 TB−,0.42*
same,ELISA absorbance at 492 nm,[1]; serum sample 43 TB−,0.32*
same,ELISA absorbance at 492 nm,[1]; serum sample 44 TB−,1.32*
same,ELISA absorbance at 492 nm,[1]; serum sample 45 TB−,0.49*
same,ELISA absorbance at 492 nm,[1]; serum sample 46 TB−,0.28*
same,ELISA absorbance at 492 nm,[1]; serum sample 47 TB−,0.56*
same,ELISA absorbance at 492 nm,[1]; serum sample 48 TB−,0.55*
same,ELISA absorbance at 492 nm,[1]; serum sample 49 TB−,0.79*
same,ELISA absorbance at 492 nm,[1]; serum sample 50 TB−,0.38*
same,ELISA absorbance at 492 nm,[1]; serum sample 51 TB−,0.18
same,ELISA absorbance at 492 nm,[1]; serum sample 52 TB−,0.32*
same,ELISA absorbance at 492 nm,[1]; serum sample 53 TB−,0.21
same,ELISA absorbance at 492 nm,[1]; serum sample 54 TB−,0.26*
same,ELISA absorbance at 492 nm,[1]; serum sample 55 TB−,0.31*
same,ELISA absorbance at 492 nm,[1]; serum sample 56 TB−,0.90*
same,ELISA absorbance at 492 nm,[1]; serum sample 57 TB−,0.55*
same,ELISA absorbance at 492 nm,[1]; serum sample 58 TB−,0.44*
same,ELISA absorbance at 492 nm,[1]; serum sample 59 TB−,0.65*
same,ELISA absorbance at 492 nm,[1]; serum sample 60 TB−,0.62*
same,ELISA absorbance at 492 nm,[1]; serum sample 61 TB−,0.76*
same,ELISA absorbance at 492 nm,[1]; serum sample 62 TB−,0.19
same,ELISA absorbance at 492 nm,[1]; serum sample 63 TB−,0.26*
same,ELISA absorbance at 492 nm,[1]; serum sample 64 TB−,0.37*
same,IL-6 secretion by wild-type BMDCs,wild-type BMDCs,no significant stimulation

# From patent US11162944B2, “Compositions and methods” (priority 2015, dated 2021)
